In patent US11103519B2, “Quinone-methide precursors with bodipy chromophore, method of preparation, biological activity and application in fluorescent labelling” (Rudjer Boskovic Institute, priority 2016, dated 2021):
Where two headings read alike, the source gives them in different places.

Assays:
[1] = system: HCT 116 (colon carcinoma); details: read-out: IC50, the concentration that causes 50% growth inhibition, HCT116, 72 h incubation, MTT
Method: The described assay was used to test the effects of test compounds on the proliferation of various human tumor cell lines, whereby cytostatic and cytotoxic effects on cells can be differentiated. The experiments were carried out on human cell lines, which were derived from 3 tumor types: MCF-7 (breast carcinoma), HCT 116 (colon carcinoma), H 460 (lung carcinoma).
Cell lines were cultured as monolayers and maintained in Dulbecco's modified Eagle medium (DMEM), supplemented with 10% fetal bovine serum (FBS), 2 mM L-glutamine, 100 U/ml penicillin and 100 μg/ml streptomycin in a humidified atmosphere with 5% CO2 at 37° C.
The cell lines were inoculated onto a series of standard 96-well microtiter plates on day 0, at 1×10^4 to 3×10^4 cells/ml, depending on the doubling times of the specific cell line. Test compounds were added next day to the cell lines in five consecutive 10-fold dilutions (10^−8 to 10^−4 M) and incubated for a further 72 hours. Working dilutions were freshly prepared on the day of testing. The solvent (DMSO) was also tested for eventual inhibitory activity by adjusting its concentration to be the same as in working concentrations.
For each cell line one of the plates was left in the dark, while the other was irradiated in a Luzchem reactor (6 lamps 350 nm, 5 min; or 6 lamps 420 nm, 15 min, visible light, 15 min) four hours after the addition of the test compounds and subsequently 24 h and 48 h after the first irradiation, as described above. After 72 hours of incubation the cell growth rate was evaluated by performing the MTT assay (Mossman, Methods Immunol, 1983, 65, 55-63), which detects dehydrogenase activity in viable cells. The MTT Cell Proliferation Assay is a colorimetric assay system, which measures the reduction of a tetrazolium component (MTT) into an insoluble formazan produced by mitochondria of viable cells. For this purpose the substance treated medium was discarded and MTT was added to each well in concentration of 20 μg/40 μl. After four hours of incubation the precipitates were dissolved in 160 μl of dimethylsulphoxide (DMSO). The absorbance (OD, optical density) was measured on a microplate reader at 570 nm. The absorbance is directly proportional to the cell viability. The percentage of growth (PG) of the cell lines was calculated according to one of the following two equations (according to the National Cancer Institute protocols, www.dtp.nci.nih.gov):
If (mean ODtest-mean ODtzero)≥0 then • PG=100×(mean ODtest-mean ODtzero)/(mean ODetrl-meanODtzero).
If (mean ODtest-mean ODtzero)<0 then: • PG=100×(mean ODtest-mean ODtzero)/ODtzero. where:
Mean ODtzero=the average of optical density measurements before exposure of cells to the test compound.
Mean ODtest=the average of optical density measurements after the desired period of time.
Mean ODetrl=the average of optical density measurements after the desired period of time with no exposure of cells to the test compound.
Each test point was performed in quadruplicate in three individual experiments. The results were expressed as IC50, a concentration necessary for 50% of proliferation inhibition. Each result is a mean value from three separate experiments. The IC50 measures the growth inhibitory power of the test agent and represents the concentration that causes 50% growth inhibition. […] Therefore, a “real” value for any of the response parameters is obtained only if at least one of the tested drug concentrations falls above, and likewise at least one falls below the respective reference value. If however, for a given cell line or test agent all of the tested concentrations produce PGs exceeding the respective reference level of effect (e.g. PG value of 50%), then the highest tested concentration is assigned as the default value. In the screening data report the default value is preceded by a “>” sign.

H 460 (lung carcinoma) = assay: Antiproliferative MTT assay, H 460; assay type: cell-based, human; details: 72 h incubation, read-out: IC50, the concentration that causes 50% growth inhibition
Source text: (§1) The absorbance is directly proportional to the cell viability.

MCF-7 (breast carcinoma) = assay: Antiproliferative MTT assay, MCF-7; assay type: cell-based, human; details: 72 h incubation, read-out: IC50, the concentration that causes 50% growth inhibition
Source text: as §1

| Substance | IC50 ([1]; Not irrad.) [µM] | IC50 ([1]; irradiated 350 nm 3 × 5 min) [µM] | IC50 ([1]; irradiated 420 nm 3 × 15 min) [µM] | IC50 ([1]; irradiated VIS 3 × 15 min) [µM] | IC50 (H 460 (lung carcinoma); Not irrad.) [µM] | IC50 (H 460 (lung carcinoma); irradiated 350 nm 3 × 5 min) [µM] | IC50 (H 460 (lung carcinoma); irradiated 420 nm 3 × 15 min) [µM] | IC50 (H 460 (lung carcinoma); irradiated VIS 3 × 15 min) [µM] | IC50 (MCF-7 (breast carcinoma); Not irrad.) [µM] | IC50 (MCF-7 (breast carcinoma); irradiated 350 nm 3 × 5 min) [µM] | IC50 (MCF-7 (breast carcinoma); irradiated 420 nm 3 × 15 min) [µM] | IC50 (MCF-7 (breast carcinoma); irradiated VIS 3 × 15 min) [µM] |
| --- | --- | --- | --- | --- | --- | --- | --- | --- | --- | --- | --- | --- |
| 4,4-difluoro-1,3,5,7-tetramethyl-8-[3-(N,N-dimethylammoniummethyl)-4-hydroxyphenyl]-4-bora-3a,4a-diaza-s-indacene hydrochloride [Example 4] | 16 ± 1 | 11 ± 2 | 2 ± 0.4 | 2 ± 0.1 | 13 ± 0.2 | 5 ± 3 | 1 ± 0.1 | 0.9 ± 0.2 | 13 ± 0.1 | 10 ± 0.6 | 2 ± 0.2 | 1.6 ± 0.01 |
| 4,4-difluoro-1,5,7-trimethyl-343-(N,N-dimethylammoniummethyl)-4-hydroxyphenyl)-8-phenyl-4-bora-3a,4a-diaza-s-indacene hydrochloride [Example 7] | 27 |  |  | 2 | 20 ± 5 |  |  | 2 ± 0.7 | 22 ± 12 |  |  | 2 ± 0.7 |
| 4,4-difluoro-8-[3-(N,N-dimethylammoniummethyl)-4-hydroxyphenyl]-4-bora-3a,4a-diaza-s-indacene hydrochloride [Example 2] | > 100 | > 100 | 37 ± 7 | 89 ± 6 | > 100 | > 100 | 30 ± 18 | 43 ± 6 | ≥ 100 | ≥ 100 | 25 ± 6 | 32 ± 25 |
